Measured values: patent US20250058002A1, “ELECTROCHEMICAL INHIBITION OF REDOX ACTIVE BACTERIA AND RELATED DEVICES, METHODS AND SYSTEMS” (priority 2023, published 2025)
“Also recorded” adds a separate entry of the source. Read-outs that look alike come from different tables or passages of the source.

How the values were obtained:
[1] = Midpoint potential E1/2 by voltammetry vs Ag/AgCl (3M KCl); type: physicochemical; details: for E1/2 (vs. Ag/AgCl (3M KCl))/mV: Example 15 table
Description: The purified redox-active molecule can be dissolved in aqueous solution at appropriate concentration in the presence of supporting electrolyte and buffer to select the pH of measurement. For example, the redox-active molecule can be dissolved in 10 μM-10 mM concentrations in distilled, deionized water (DDW). The supporting electrolyte can be a salt such as NaCl or KCl at 0.01-0.5 M concentrations, for example, dissolved in DDW. The buffer can be 10 mM ammonium acetate/3-(N-morpholino)propanesulfonic acid at pH 7, or phosphate-buffered saline (PBS) at pH 7.4, or sodium acetate buffer at pH 5, or di-sodium hydrogen phosphate/potassium dihydrogen phosphate at pH 9, or boric acid/citric acid/trisodium phosphate for a wide range of pH values, for example.
Voltammetric methods are then used to characterize the electrochemical behavior of the redox-active molecule in such solution, with a potentiostat such as a Gamry PC4-300, using a three-electrode setup with working electrode (glassy carbon, or platinum, or gold), counter electrode (platinum wire) and reference electrode (Ag/AgCl (3M KCl), or SCE, or NHE; values are reported relative to Ag/AgCl (3M KCl) which has potential +197 mV vs. NHE at 298K).
For example, cyclic voltammetry may be used. In a cyclic voltammetry experiment phenazines will show a peak on the cathodic sweep (denoted Epc) corresponding to the reduction of the redox molecule.
The reverse, anodic sweep will show a peak (denoted Epa) corresponding to the re-oxidation of the redox molecule. If the electrode reaction is diffusion-controlled and reversible, the cathodic and anodic peak currents will be equal in area, and the mid-point between these peaks may be taken as the formal reduction potential of the redox molecule under the experimental conditions used. This value can interchangeably be referred to as the “midpoint potential” or “mid-peak potential”, denoted E1/2.
PYO was purified from aerobic bacterial cultures and was dissolved in 0.1 M KCl aqueous solution buffered with 10 mM ammonium acetate-3-(N-morpholino)propanesulfonic acid (5 mM each, pH 7) to yield a stock solution concentration of 829 μM PYO. Electrochemical measurements were performed with a Gamry PC4-300 potentiostat. A stationary gold disk electrode (BASi) was used as the working electrode, an Ag/AgCl electrode (RE-51, BASi) as the reference, and a straight platinum wire (BASi) was the counter electrode. Scans were performed between 20 and 500 mV/s in the potential range of around E1/2 (+/−300 mV), at 298 K.
As described in en.wikipedia.org/wiki/Nernst_equation, the Nernst equation relates E1/2 measured at pH 7 to the E1/2 at a different pH by:
[formula] • where E1/2 is in V • h is the number of protons transferred in the electrochemical reaction • e is the number of electrons transferred in the electrochemical reaction

PA14 [2] = assay: Reduction of redox-active compound by PA14 (Table 4); type: cell-based, P. aeruginosa
Description: (§1) Phenazines and other redox active compound in the sense of the disclosure can be further characterized by various electrical properties such as a standard electrode potential E° vs. NHE of −500 mV to 500 mV and other properties such as number of redox cycle over a certain period of time (e.g. number of days) as ability to support survival and susceptibility to reduction by enzymes and/or bacterial strains.

PA14 [3] = assay: Redox cycles over 7 days and support of survival (Table 4); type: cell-based, P. aeruginosa
Description: as §1

[4] = from Wang and Newman (2008), cited from earlier work
[5] = oxidized form; literature values (footnotes a, c, d); cited from earlier work
[6] = vs NHE at pH7; cited from earlier work
[7] = Standard electrode potential E0' vs NHE of exemplary redox-active compounds (Table 4); type: physicochemical; details: measured in aqueous solution at pH 7 in this study (footnote b)
Description: as §1

[8] = tested on: P. aeruginosa PA14 biofilms; assay: Anoxic survival (CFU) of electrode-attached wild type biofilms at poised potential with sub-MIC antibiotics; type: cell-based, P. aeruginosa UCBPP-PA14; details: for decrease in cell survival under PYO-reductive conditions compared with OC: −400 mV vs OC, 1 μg/mL meropenem or 4 μg/mL ciprofloxacin; for effect on wild type biofilms under PYO-reductive conditions (in words): anoxic, sub-MIC antibiotic
Description: (§2) Electrochemical reactors and biofilm growth. Double-jacketed electrochemical reactors (Pine Instruments, 250 ml, wide center port 29/26) were used with ITO-coated 0.2 mm thick boro-aluminosilicate glass slides (Delta Technologies, 24×60 mm, Rs=7-10Ω) as working electrodes, freshly sanded graphite rods (Alfa Aesar) as counter electrodes, and Ag/AgCl in 3M KCl reference electrodes (BASi). Silver epoxy (Electron Microscopy Sciences) was used to make electrical connection between insulated wire ([…]) and working electrode and was insulated using 5 Minute® expoxy (Devcon). Working electrodes were assembled within 5 hours of use. Reactors were sterilized by autoclaving without reference or working electrodes, which were sterilized by submerging in 10% bleach for 5 minutes or 30 seconds, respectively, and rinsed in sterile water. Individual mid-log liquid cultures (OD600 0.45-0.55) were used to inoculate sterile reactors containing 140 ml of MM (described above) with 0.1% (vol/vol) for each biological replicate. Antibiotics were not added at this point. Working electrodes were poised at either open circuit, +100 mV, or −400 mV vs. Ag/AgCl (+310 mV and −190 mV vs the standard hydrogen electrode, respectively). Reactors were aerated using an aquarium pump with a 0.2 μm filter (Thermo Scientific) and heated to 31° C. using a circulating water bath (Haake A 25, Thermo Scientific). Fresh medium was exchanged every 24 hours for 5 days. After 5 days of aerobic growth, working electrode-attached biofilms were rinsed in sterile medium to remove planktonic cells and transferred to sterile reactors with fresh MM previously flushed for 2 hours with N2 ultra-high purity gas (NRL supply store). For antibiotic exposure experiments, antibiotics were added to sterile media before flushing with N2. For PYO-addition experiments, 10 μM PYO (Cayman Chemical) was added to in the MM before flushing with N2. Working electrodes were poised to their corresponding potential and biofilms were incubated for an additional 72 hours under N2 flushing at 31° C.
Biofilm harvesting and processing. After 72 hours of incubation under anoxic conditions, electrode-attached biofilms were rinsed in sterile media. The biofilms within the bottom 3.12 cm^2 of each working electrode were scraped off using a cell scraper (Sarstedt) and resuspended in antibiotic-free MM. Serial dilutions were prepared in sterile antibiotic-free MM and plated on antibiotic-free LB. The rest of the electrode-attached biofilms were incubated at room temperature in freshly-made 2 μM TOTO-1 and 10 μM SYTO-60 (Invitrogen) in MM for 15 minutes and rinsed 2× in sterile MM for 15 minutes. Imaging was done with an upright Zeiss LSM 800 microscope with Airyscan and a 40× oil immersion lens. SYTO-60 was excited with a 561 nm; 0.20% laser and emission was recorded from 580-700 nm. TOTO-1 was excited with a 488 nm; 0.20% laser and emission was recorded from 490 to 580 nm.
In order to test the effect of antibiotic in combination with application of a difference in voltage to P. aenuginosa, sub-MICs of gentamicin, meropenem, ciprofloxacin, and colistin were added to anoxic survival reactors set up as described in Examples 1 and 2.

Δphz* biofilms = assay: Anoxic survival (CFU) of electrode-attached phenazine-deficient biofilms at poised potential; type: cell-based, P. aeruginosa UCBPP-PA14; Δphz*; details: 4 μg/mL gentamicin, −400 mV, absence of phenazines
Description: as §2, with “For PYO-addition experiments, 10 μM PYO (Cayman Chemical) was added to in the MM before flushing with N2. Working electrodes were poised to their corresponding potential and biofilms were incubated for an additional 72 hours under N2 flushing at 31° C.” left out
Biofilm harvesting and processing. […] SYTO-60 was excited with a 561 nm; 0.20% laser and emission was recorded from 580-700 nm. TOTO-1 was excited with a 488 nm; 0.20% laser and emission was recorded from 490 to 580 nm.

## C[n+]1c2ccccc2nc2c(C(=O)O)cccc21
[1]; pH 7
  E1/2 (vs. Ag/AgCl (3M KCl))/mV: 0 mV

## O=C(O)c1cccc2nc3c(C(=O)O)cccc3nc12
[1]; pH 7
  E1/2 (vs. Ag/AgCl (3M KCl))/mV: 0 mV

## O=C1c2ccc(S(=O)(=O)O)cc2C(=O)C2C=CC(S(=O)(=O)O)=CC12 (stereo not shown)
[1]; pH 7
  E1/2 (vs. Ag/AgCl (3M KCl))/mV: −381 mV

## Oc1cccc2nc3ccccc3nc12 [1-Hydroxyphenazine (1-OHPHZ), 1-Hydroxyphenazine]
[1]; pH 5
  E1/2 (vs. Ag/AgCl (3M KCl))/mV: −254 mV
[1]; pH 6
  E1/2 (vs. Ag/AgCl (3M KCl))/mV: −323 mV
[1]; pH 7
  E1/2 (vs. Ag/AgCl (3M KCl))/mV: −371 mV
[1]; pH 8
  E1/2 (vs. Ag/AgCl (3M KCl))/mV: −442 mV
PA14 [2]
  Reduction by PA14?: Yes
PA14 [3]
  Support survival?: Yes
  # of Redox cycles over 7 days: 14
[4]; pH 5
  E1/2 (vs. Ag/AgCl (3M KCl))/mV: −254 mV
[4]; pH 6
  E1/2 (vs. Ag/AgCl (3M KCl))/mV: −323 mV
[4]; pH 7
  E1/2 (vs. Ag/AgCl (3M KCl))/mV: −371 mV
[4]; pH 8
  E1/2 (vs. Ag/AgCl (3M KCl))/mV: −442 mV
[5]
  E0' (vs. NHE) (mV): −174^a mV

## O=C1c2ccc(S(=O)(=O)O)cc2C(=O)c2ccc(S(=O)(=O)O)cc21 [2,6-AQDS]
PA14 [2]
  Reduction by PA14?: Yes (very slowly)
PA14 [3]
  Support survival?: No
  # of Redox cycles over 7 days: No cycle
[6]
  Redox potentials E (mV): −184 mV
[5]
  E0' (vs. NHE) (mV): −184^d mV

## NC1=C(C(=O)O)C(=O)c2ccccc2C1=O [ACNQ ox/red, ACNQ]
[6]
  Redox potentials E (mV): −71 mV

## O=C1CCC(=O)N(O)CCC(O)CNC(=O)CCC(=O)N(O)CCC(O)CN1 (stereo not shown) [Alcaligin]
[6]
  Redox potentials E (mV): −588 mV

## O=C(O)Cc1cc(O)ccc1O [Homogentisic acid (HMA), Homogentisic acid]
PA14 [3]
  Support survival?: No
  # of Redox cycles over 7 days: No cycle
[7]
  E0' (vs. NHE) (mV): +306^b mV

## C[n+]1ccc(-c2cc[n+](C)cc2)cc1 [Paraquat]
PA14 [2]
  Reduction by PA14?: No
PA14 [3]
  Support survival?: No
  # of Redox cycles over 7 days: No cycle
[5]
  E0' (vs. NHE) (mV): −446^c mV

## O=C(O)c1cccc2nc3ccccc3nc12 [Phenazine-1-carboxylate (PCA), Phenazine-1-carboxylate]
[1]; pH 5
  E1/2 (vs. Ag/AgCl (3M KCl))/mV: −185 mV
[1]; pH 6
  E1/2 (vs. Ag/AgCl (3M KCl))/mV: −257 mV
[1]; pH 7
  E1/2 (vs. Ag/AgCl (3M KCl))/mV: −313 mV
PA14 [2]
  Reduction by PA14?: Yes
PA14 [3]
  Support survival?: Yes
  # of Redox cycles over 7 days: 22
[4]; pH 5
  E1/2 (vs. Ag/AgCl (3M KCl))/mV: −185 mV
[4]; pH 6
  E1/2 (vs. Ag/AgCl (3M KCl))/mV: −257 mV
[4]; pH 7
  E1/2 (vs. Ag/AgCl (3M KCl))/mV: −313 mV
[5]
  E0' (vs. NHE) (mV): −114^a mV

## NC(=O)c1cccc2nc3ccccc3nc12 [XXV, phenazine-1-carboxamide]
[1]; pH 5
  E1/2 (vs. Ag/AgCl (3M KCl))/mV: −205 mV
[1]; pH 6
  E1/2 (vs. Ag/AgCl (3M KCl))/mV: −278 mV
[1]; pH 7
  E1/2 (vs. Ag/AgCl (3M KCl))/mV: −337 mV
[4]; pH 5
  E1/2 (vs. Ag/AgCl (3M KCl))/mV: −205 mV
[4]; pH 6
  E1/2 (vs. Ag/AgCl (3M KCl))/mV: −278 mV
[4]; pH 7
  E1/2 (vs. Ag/AgCl (3M KCl))/mV: −337 mV

## O=C(O)c1cn(C2CC2)c2cc(N3CCNCC3)c(F)cc2c1=O [ciprofloxacin]
[8]
  decrease in cell survival under PYO-reductive conditions compared with OC: ~100 ×

## NC1=C(C(=O)O)C(=O)c2ccccc2C1=O [drawing 45]
[1]; pH 7
  E1/2 (vs. Ag/AgCl (3M KCl))/mV: −250 mV

## C[C@@H](O)[C@H]1C(=O)N2C(C(=O)O)=C(S[C@@H]3CN[C@H](C(=O)N(C)C)C3)[C@H](C)[C@H]12 [meropenem]
[8]
  decrease in cell survival under PYO-reductive conditions compared with OC: ~100 ×

## Menaquinone [Menaquinone ox/red]
[6]
  Redox potentials E (mV): −75 mV

## NAD/NADH
[1]; aqueous environment at pH7
  midpoint potential vs Ag/AgCl: −600 mV
[6]
  Redox potentials E (mV): −320 mV

## O2/H2O
[6]
  Redox potentials E (mV): +820 mV

## Ubiquinone [Ubiquinone ox/red]
[6]
  Redox potentials E (mV): +113 mV

## colistin
[8]; +100 mV, 10 μg/mL colistin vs no antibiotic
  decrease in CFUs under PYO-oxidative conditions compared with nontreated biofilms: 10 ×
[8]; −400 mV vs Ag/AgCl
  effect on wild type biofilms under PYO-reductive conditions (in words): did not show an additive effect

## gentamicin
[8]; wild type biofilms, 72 h anoxic, −400 mV vs Ag/AgCl, n=3, 4 μg/mL gentamicin, 1 μg/mL meropenem, 4 μg/mL ciprofloxacin
  CFU/cm^2 ± SE, −400 mV (PYO-reductive conditions): 21.4±10.7 CFU/cm^2
[8]; −400 mV vs Ag/AgCl
  effect on wild type biofilms under PYO-reductive conditions (in words): almost fully eradicated WT biofilms; also recorded: almost completely eradicated wild type biofilms
Δphz* biofilms
  effect on Δphz* biofilms under PYO-reductive conditions (in words): did not affect Δphz* biofilms; also recorded: had no effect on the survival of Δphz* biofilms
